Reference: a melting point compilation (Tetko et al.; mined from patent text by program, amines drawn as free bases though some values may be those of a salt)

melting point [°C] | Compound
172 to 174 | O=[N+]([O-])c1ccc(Cn2c(-c3ccc4c(c3)OCO4)nc3ccccc32)cc1
146 to 147 | COc1ccccc1-n1nccc1-c1nn(-c2cccc(C(F)(F)F)c2)ccc1=O
237 to 240 | Cn1nnnc1-c1cn(C)c2cc(S(C)=O)ccc2c1=O (stereo not given)
127 | CNC(=S)C1(c2cnccn2)CCCS1 (stereo not given)
121 to 123 | CCC(=O)C(=O)NC(=O)[C@@H](N)Cc1ccccc1
206 to 207 | CCn1nnnc1Cc1ccc(NC(=O)/C=C/c2cnn(C)c2-c2ccc(F)cc2)cc1
132 to 134 | COC(=O)C1CCCN(C(=O)OCc2ccccc2)N1C(=O)C(Br)CBr (stereo not given)
195 | CC(=O)Oc1c(C(C)(C)C)cc2c(c1C(C)(C)C)C=CS2(=O)=O
216 to 218 | CN1CCC(C2Cc3c(O)cccc3C(=O)N2)CC1 (stereo not given)
110 to 113 | CC1(C=O)CC1(c1ccc(F)cc1)c1ccc(F)cc1 (stereo not given)
145 to 146 | CCCCc1nn(-c2cc([N+](=O)[O-])ccc2C(F)(F)F)c(=O)n1Cc1ccc(-c2ccccc2S(=O)(=O)NC(C)(C)C)cc1F
140 to 141 | CNC(=O)[C@H]1S[C@@H](n2cnc3c(NCc4cccc(I)c4)nc(Cl)nc32)[C@H](O)[C@@H]1O
102 to 107 | CCC(c1oc2ccccc2c(=O)c1-c1cccc(F)c1)n1cnc2c(N)ncnc21 (stereo not given)
213 to 215 | O=C(/C=C/c1ccc(Br)cc1)c1cnc2sccn12
45 | BrC=C(c1ccccc1)c1ccccc1
300 to 305 | O=C1C2=C(SCCS2)C(O)N1c1ccc2c(Cl)ccnc2n1 (stereo not given)
249 to 251 | COC1CCN(c2c(F)cc3c(=O)c(C(=O)O)cn4c3c2CCC4C)CC1 (stereo not given)
181 to 184 | Cc1ccc2c(c1)C=C(C(=O)O)C(C(F)(F)F)S2 (stereo not given)
165 to 166 | CCc1ccc(C2C(C#N)=C(CC(C)C)NC(C)=C2C(=O)OC(C)(C)C)cc1 (stereo not given)
167 to 170 | Cc1nc2c3c(c(C(=O)N(C)C)cc2n1C)CCC(c1ccccc1)N3 (stereo not given)
87 to 89 | CNC(c1cccc(OCOC)c1)C1CCCCC1O (stereo not given)
214 to 216 | CCN(C(=O)c1cc(C(C)(C)C)c(OC(=O)c2cc(C(C)(C)C)c(O)c(C(C)(C)C)c2)c(C(C)(C)C)c1)c1ccc(C)cc1
133 to 134 | CCOCc1cccc2cc(C(N)=O)oc12
233 | O=C1C(Cl)=C(Nc2ccc(O)cc2)C(=O)c2ccccc21

melting point [°C] | Compound
164 to 168 | Cn1c(COc2ccc(CC3SC(=O)NC3=O)cc2)nc2ccc(Oc3ccc(NC(=O)Nc4ccccc4)cc3)cc21 (stereo not given)
207 to 210 | Cc1c(F)c(N2CCC(n3cncn3)C2)c(F)c2c1c(=O)c(C(=O)O)cn2C1CC1 (stereo not given)
107 to 108 | C[Si](C)(C)c1ccc2c(c1)C(CN1CCCCC1)c1cc([Si](C)(C)C)ccc1-2
81 to 82 | COC(=O)CCSCCOC1OC(COC(C)=O)C(OC(C)=O)C(OC(C)=O)C1OC(C)=O (stereo not given)
192 to 195 | Nc1ccc(-c2ccncc2)cn1
139 to 140 | CCC(=O)OCC1OC(n2c(Cl)c(C=O)c3cc(Cl)c(Cl)cc32)C(O)C1O (stereo not given)
239 to 241 | Cn1c(=O)n(O)c(=O)c2cc(F)c(F)cc21
93 to 96 | COCCOc1ccc(CC(OC)C(=O)O)c(Oc2ncc(C(F)(F)F)cc2Cl)c1 (stereo not given)
214 | NC(=S)C1(c2ccccn2)SCCCS1
106 to 111 | CCOP(=O)(CCCOc1ccc2c(c1)c(CC(N)=O)c(C)n2Cc1ccccc1)OCC
271 to 272 | O=C(O)c1ccc2[nH]c3ccccc3c2c1
64 to 65 | CCC(O)(C#CC(O)c1ccc(SC)cc1)CC (stereo not given)
184 | Cn1cc(-c2cc(F)c(F)c(OC3SCC(O)C(O)C3O)c2)cn1 (stereo not given)
216 to 217 | O=c1cc(-c2ccc(F)cc2)oc(N2CCOCC2)c1
116 to 118 | COc1ccc(-n2cccc2-c2ccc(S(C)(=O)=O)cc2)cc1F
51 to 53 | FC(F)(F)COc1ccc(Cc2ccncc2)cc1
125 to 126 | CS(=O)c1nnc(-c2ccccc2NC(=O)c2cccc(C(F)(F)F)c2)s1 (stereo not given)
128 to 129 | CC(C)(C)OC(=O)NCc1nc(C(=O)NNC(=O)OCc2ccccc2)cc(OCc2ccccc2)c1OCc1ccccc1
141 to 142 | Cc1c(C)c(N)c2c(c1C)C(=O)C(C)(C)O2
128 to 130 | CCOC(=O)Cc1c([N+](=O)[O-])cc(OCc2ccccc2)c2ccccc12
218 to 219 | CN(C(CCn1c(=O)[nH]c2ccsc2c1=O)C(=O)O)S(=O)(=O)c1ccc(Oc2ccccc2)cc1 (stereo not given)
173 to 174 | CC(=O)Nc1cc2c(cc1C#N)C(Nc1ccc(C(=O)OC(C)(C)C)cc1)CC2 (stereo not given)
160 to 162 | CC1CCC(=NNc2ccccc2)c2ncc(CC(=O)O)c(=O)n21 (stereo not given)
135 to 137 | Cn1c(=O)c2ccccc2n(Cc2ccc(F)cc2)c1=N

melting point [°C] | Compound
126 to 128 | COC(=O)/C=C(C)/C=C/C(F)=C(C)/C=C/c1c(C)sc(C)c1C
120 to 122 | N#Cc1cnn(-c2ccc(F)cc2F)c1Cl
218 to 219 | Cc1nc2c(c3c1[nH]c1ccccc13)C(=O)CC(C)C2 (stereo not given)
69 to 72 | CN(C)Cc1ccc(CSCCNC(=C[N+](=O)[O-])NCCCCCCCCCCCCNC(=C[N+](=O)[O-])NCCSCc2ccco2)o1
95 to 106 | CC(=O)N1CCCc2cc(CO)ccc21
138 to 139 | CNc1ccc(C2OC(C)(C)N=C2c2ccccc2)cc1 (stereo not given)
129 to 131 | O=C(O)CCCCCc1cnc2ccccc2c1
51 to 52 | Cc1ccc(C)c(OCCCC(C)(C)C(=O)Nc2cccc(C3=NC(C)(C)CO3)c2C)c1
163 to 165 | Cc1noc(C)c1C(=O)Nc1ccc(-n2nc(C(F)(F)F)cc2C2CC2)c(F)c1
169 to 170 | Cc1c(CC(=O)O)oc2ccc(C(C)(C)C)cc12
48 to 49 | CCCC[C@@H](O)[C@H](O)CCCC
153 to 157 | c1ccc2cc3[nH]c(SCc4nccs4)nc3cc2c1
205 to 208 | N#Cc1nc(N)c(Cl)nc1C#N
217 to 220 | N#Cc1ccc2c(c1)C(=O)c1cc3c(cc1OC2)OCO3
150 to 152 | CC(C)(O)[C@H](CO)NC(=O)[C@@H](CC(=O)O)n1ccc(-c2ccc(-c3ccccc3)cc2)c1
221 to 222 | Clc1cccc(-c2ccc3cnc(Nc4ccc(N5CCOCC5)nc4)nn23)c1
316 to 319 | O=C1NCc2c1cc1ccc3c(c1c2-c1ccncc1)OCO3
238 to 240 | O=C1CCC(c2ccc(NC(=O)CCN3CCC(c4ccccc4)CC3)cc2)=NN1
148 to 150 | Cc1noc([C@@H](Cc2ccccc2)NC(=O)[C@@H](Cc2ccc3ccccc3c2)NC(=O)OC(C)(C)C)n1
133 to 135 | Cc1ccc(-c2nn(-c3ccccc3C)c(N)c2C(N)=O)cc1
100 to 102 | C#CCN1C(=O)COc2ccc(C3CC(=O)C(C(CC)=NOCC)=C(O)C3)cc21 (stereo not given)
135 to 136 | CCOc1ccc(C2=NN(C3CCN(C(=O)CCl)CC3)C(=O)[C@@H]3CC=CC[C@H]23)cc1OCC
103 to 106 | O=C(Cn1nnnc1-c1ccsc1)OCCO
276 to 278 | Cc1cccc(C)c1NC(=O)c1ccc(NC(=O)CN(C)C)cc1

melting point [°C] | Compound
90 to 92 | CCCc1c(OCCCSCCC(=O)O)ccc(C(C)=O)c1O
58 to 59 | CCOc1cc(N(CC)CC)ccc1C=O
200 to 210 | Cn1c(COc2ccc(CC3SC(=O)NC3=O)cc2)nc2ccc(Oc3ccccn3)cc21 (stereo not given)
194 | O=C(Cc1cccc2ccccc12)Nc1cc([C@H]2C[C@@H](NC(=O)c3ccccc3)C2)[nH]n1
99 to 101 | CCCCCCCCCCCCCCCCCCNC(=O)c1cc(OC(C)=O)cc(OC(C)=O)c1
138 to 139 | CCCc1cn(CC(=O)O)nc1OCCCc1cn(-c2ccc(C(F)(F)F)cn2)nc1CCC
51 to 52 | COc1ccc(-c2c3cccc(C(F)(F)F)c3nn2C2CCC2)c(OC)c1
170 to 171 | CCOC(=O)C(Cc1cc(Cl)c(Sc2ccc(OC)c(Cc3ccc(OC)nc3)c2)c(Cl)c1)(NC(C)=O)C(=O)OCC
323 | CN(c1nc2cc(NC(=O)OC(C)(C)C)ccn2n1)C1CC1
119 to 120 | C=COCCN1C(=O)CN(c2ccccc2)C1=O
224 to 226 | COC(=O)CCC(=O)Nc1cccc2c1C(=O)N(C1CCC(=O)NC1=O)C2=O (stereo not given)
73 to 77 | O=C(Nc1ccccn1)C(CC1CCCC1)c1ccc(-c2cccc3ccccc23)cc1 (stereo not given)
118 to 121 | CCCCCCCc1ccccc1C=CC(=O)c1ccc(OCC=C(C)C)cc1OCC(=O)O
85 to 90 | CCCn1nc(C)c2c1C1=NC(C)CN1C(C)=N2 (stereo not given)
258 to 260 | O=c1c(Nc2ccc(Cl)cc2)nc2ccccc2n1-c1ccc(Cl)cc1
260 to 261 | O=C(O)CNc1cc(C(=O)O)nc2ccccc12
215 to 216 | CC(C)Cn1c2c(c(=O)n(C)c1=O)C(=O)C(=Cc1cccnc1)S2
123 to 125 | Cc1c(CO)c(CO)c2n1-c1ccccc1C2
178 to 180 | CCc1noc(C)c1-c1[nH]c2ccccc2c1C(O)CN(C)C (stereo not given)
156 to 158 | CN(C)CC1(C2(O)CCCCC2)Cc2cc3c(cc21)N(S(C)(=O)=O)CC3 (stereo not given)
77 to 79 | CC(=O)C(C)C(=O)N(c1ccc(Cl)cc1)C(C)C (stereo not given)
259 | COc1ccc(-c2nc(N)ncc2-c2ccc(=O)n(C)n2)cc1
47 to 49 | CN(C)CC(F)(F)[C@H](O)[C@@H](N)CC1CCCCC1
156 | CC(C)(C)C(OC(=O)Nc1ccccc1)C(=CC1CCCCC1)n1cncn1 (stereo not given)

Compound | melting point [°C]
CN1CC=C(c2cc3ccccc3c(=O)[nH]2)CC1 | 222 to 223
CC1(C)C(C=CC(=O)Cl)C1C(=O)OC(C#N)c1cccc(Oc2ccccc2)c1 (stereo not given) | 86
CC(C)(C)OC(=O)c1ncn2c1[C@@H]1CCCN1C(=O)c1c-2ccc(N)c1Br | 245 to 246
C#Cc1ccc2c(c1)C(c1ccccc1)=NCc1c(C(=O)NC)ncn1-2 | 237 to 238
